According to the kinase profiling compilation of Christmann-Franck et al. (2016):

What was measured:
Experiment in all cases: KINOMEscan competition binding
Conditions in all cases: compound 10.0 µM
[1] = system: ABL1 (human), P00519 [T315I]
[2] = system: EGFR (human), P00533 [G719S]
[3] = system: PIK3CA (human), P42336 [Q546K]
[4] = system: EGFR (human), P00533 [L861Q]
[5] = system: FLT3 (human), P36888 [K663Q]
[6] = system: PIK3CA (human), P42336 [E545K]
[7] = system: ABL1 (human), P00519 [E255K]
[8] = system: PIK3CA (human), P42336 [E545A]
[9] = system: KIT (human), P10721 [V559D/T670I]
[10] = system: PIK3CA (human), P42336 [H1047Y]
[11] = system: FLT3 (human), P36888 [N841I]
[12] = system: EGFR (human), P00533 [P753S; 747-752 del]
[13] = system: ABL1 (human), P00519 [M351T]
[14] = system: KIT (human), P10721 [D816V]
[15] = system: EGFR (human), P00533 [746-750 del]
[16] = system: ABL1 (human), P00519 [Q252H]
[17] = system: EIF2AK4 KD2 (human), Q9P2K8 [S808G]
[18] = system: PIK3CA (human), P42336 [C420R]
[19] = system: FLT3 (human), P36888 [ITD]
[20] = system: KIT (human), P10721 [V559D]
[21] = system: PIK3CA (human), P42336 [I800L]
PIK3CA (human), P42336 [I800L], sequence (P42336 whole entry I800L, looked up): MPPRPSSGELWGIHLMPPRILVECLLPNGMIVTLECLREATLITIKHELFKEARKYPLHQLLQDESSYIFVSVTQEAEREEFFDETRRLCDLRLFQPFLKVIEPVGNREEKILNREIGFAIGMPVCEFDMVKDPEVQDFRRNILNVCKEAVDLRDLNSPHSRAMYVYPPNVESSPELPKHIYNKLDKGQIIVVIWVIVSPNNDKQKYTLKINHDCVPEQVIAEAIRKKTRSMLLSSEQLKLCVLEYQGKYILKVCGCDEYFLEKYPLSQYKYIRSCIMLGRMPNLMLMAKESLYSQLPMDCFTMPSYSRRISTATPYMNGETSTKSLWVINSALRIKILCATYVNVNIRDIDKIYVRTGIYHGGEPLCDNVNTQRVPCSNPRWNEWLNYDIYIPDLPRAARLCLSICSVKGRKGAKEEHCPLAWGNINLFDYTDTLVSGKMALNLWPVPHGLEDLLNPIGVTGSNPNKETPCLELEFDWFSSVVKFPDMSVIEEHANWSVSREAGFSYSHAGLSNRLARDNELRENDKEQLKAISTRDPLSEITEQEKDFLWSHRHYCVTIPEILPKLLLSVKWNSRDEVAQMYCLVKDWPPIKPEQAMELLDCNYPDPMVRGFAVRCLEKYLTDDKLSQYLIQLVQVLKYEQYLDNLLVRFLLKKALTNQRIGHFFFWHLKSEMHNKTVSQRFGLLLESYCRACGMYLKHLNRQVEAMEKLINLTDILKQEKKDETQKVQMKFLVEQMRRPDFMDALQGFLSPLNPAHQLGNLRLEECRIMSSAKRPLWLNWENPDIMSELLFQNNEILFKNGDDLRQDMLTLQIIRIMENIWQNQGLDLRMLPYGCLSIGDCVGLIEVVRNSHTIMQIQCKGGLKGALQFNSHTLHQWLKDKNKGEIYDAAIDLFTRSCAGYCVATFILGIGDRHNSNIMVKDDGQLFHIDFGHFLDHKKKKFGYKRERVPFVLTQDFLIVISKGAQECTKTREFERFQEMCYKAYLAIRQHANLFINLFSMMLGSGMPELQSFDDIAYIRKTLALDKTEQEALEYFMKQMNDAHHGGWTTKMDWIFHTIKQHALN

PIK3CA (human), P42336 [E545A], sequence (P42336 whole entry E545A, looked up): as the sequence (P42336 whole entry I800L, looked up) above, with E545A, L800I counted along it
KIT (human), P10721 [D816V], sequence (P10721 whole entry D816V, looked up): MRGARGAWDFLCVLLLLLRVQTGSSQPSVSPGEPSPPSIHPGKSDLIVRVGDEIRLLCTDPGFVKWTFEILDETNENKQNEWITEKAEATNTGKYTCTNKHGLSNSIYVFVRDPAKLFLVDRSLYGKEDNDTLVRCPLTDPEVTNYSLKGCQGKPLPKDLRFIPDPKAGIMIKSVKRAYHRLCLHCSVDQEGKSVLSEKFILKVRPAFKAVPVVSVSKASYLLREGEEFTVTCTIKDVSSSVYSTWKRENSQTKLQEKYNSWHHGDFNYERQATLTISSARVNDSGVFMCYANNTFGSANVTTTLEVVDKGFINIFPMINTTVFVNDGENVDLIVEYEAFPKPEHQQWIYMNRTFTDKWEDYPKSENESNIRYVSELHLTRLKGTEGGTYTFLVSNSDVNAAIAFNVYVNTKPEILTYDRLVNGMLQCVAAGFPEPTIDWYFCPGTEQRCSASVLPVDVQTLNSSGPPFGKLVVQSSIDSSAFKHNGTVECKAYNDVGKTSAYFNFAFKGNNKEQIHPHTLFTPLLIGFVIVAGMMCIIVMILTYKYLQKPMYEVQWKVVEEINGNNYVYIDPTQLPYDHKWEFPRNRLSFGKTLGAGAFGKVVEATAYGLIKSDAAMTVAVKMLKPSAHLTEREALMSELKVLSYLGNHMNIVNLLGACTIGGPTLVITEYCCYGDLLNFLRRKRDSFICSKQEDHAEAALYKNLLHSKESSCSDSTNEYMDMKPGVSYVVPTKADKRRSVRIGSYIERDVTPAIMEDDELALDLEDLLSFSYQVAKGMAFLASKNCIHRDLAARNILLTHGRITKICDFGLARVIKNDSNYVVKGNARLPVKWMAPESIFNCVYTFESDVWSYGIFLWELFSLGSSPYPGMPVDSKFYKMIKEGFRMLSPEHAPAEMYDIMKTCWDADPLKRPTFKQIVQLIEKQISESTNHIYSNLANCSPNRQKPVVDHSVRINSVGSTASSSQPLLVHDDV
KIT (human), P10721 [V559D/T670I], sequence (P10721 whole entry V559D/T670I, looked up): as the sequence (P10721 whole entry D816V, looked up) above, with V559D, T670I, V816D counted along it
EIF2AK4 KD2 (human), Q9P2K8 [S808G], sequence (Q9P2K8 whole entry S808G, looked up): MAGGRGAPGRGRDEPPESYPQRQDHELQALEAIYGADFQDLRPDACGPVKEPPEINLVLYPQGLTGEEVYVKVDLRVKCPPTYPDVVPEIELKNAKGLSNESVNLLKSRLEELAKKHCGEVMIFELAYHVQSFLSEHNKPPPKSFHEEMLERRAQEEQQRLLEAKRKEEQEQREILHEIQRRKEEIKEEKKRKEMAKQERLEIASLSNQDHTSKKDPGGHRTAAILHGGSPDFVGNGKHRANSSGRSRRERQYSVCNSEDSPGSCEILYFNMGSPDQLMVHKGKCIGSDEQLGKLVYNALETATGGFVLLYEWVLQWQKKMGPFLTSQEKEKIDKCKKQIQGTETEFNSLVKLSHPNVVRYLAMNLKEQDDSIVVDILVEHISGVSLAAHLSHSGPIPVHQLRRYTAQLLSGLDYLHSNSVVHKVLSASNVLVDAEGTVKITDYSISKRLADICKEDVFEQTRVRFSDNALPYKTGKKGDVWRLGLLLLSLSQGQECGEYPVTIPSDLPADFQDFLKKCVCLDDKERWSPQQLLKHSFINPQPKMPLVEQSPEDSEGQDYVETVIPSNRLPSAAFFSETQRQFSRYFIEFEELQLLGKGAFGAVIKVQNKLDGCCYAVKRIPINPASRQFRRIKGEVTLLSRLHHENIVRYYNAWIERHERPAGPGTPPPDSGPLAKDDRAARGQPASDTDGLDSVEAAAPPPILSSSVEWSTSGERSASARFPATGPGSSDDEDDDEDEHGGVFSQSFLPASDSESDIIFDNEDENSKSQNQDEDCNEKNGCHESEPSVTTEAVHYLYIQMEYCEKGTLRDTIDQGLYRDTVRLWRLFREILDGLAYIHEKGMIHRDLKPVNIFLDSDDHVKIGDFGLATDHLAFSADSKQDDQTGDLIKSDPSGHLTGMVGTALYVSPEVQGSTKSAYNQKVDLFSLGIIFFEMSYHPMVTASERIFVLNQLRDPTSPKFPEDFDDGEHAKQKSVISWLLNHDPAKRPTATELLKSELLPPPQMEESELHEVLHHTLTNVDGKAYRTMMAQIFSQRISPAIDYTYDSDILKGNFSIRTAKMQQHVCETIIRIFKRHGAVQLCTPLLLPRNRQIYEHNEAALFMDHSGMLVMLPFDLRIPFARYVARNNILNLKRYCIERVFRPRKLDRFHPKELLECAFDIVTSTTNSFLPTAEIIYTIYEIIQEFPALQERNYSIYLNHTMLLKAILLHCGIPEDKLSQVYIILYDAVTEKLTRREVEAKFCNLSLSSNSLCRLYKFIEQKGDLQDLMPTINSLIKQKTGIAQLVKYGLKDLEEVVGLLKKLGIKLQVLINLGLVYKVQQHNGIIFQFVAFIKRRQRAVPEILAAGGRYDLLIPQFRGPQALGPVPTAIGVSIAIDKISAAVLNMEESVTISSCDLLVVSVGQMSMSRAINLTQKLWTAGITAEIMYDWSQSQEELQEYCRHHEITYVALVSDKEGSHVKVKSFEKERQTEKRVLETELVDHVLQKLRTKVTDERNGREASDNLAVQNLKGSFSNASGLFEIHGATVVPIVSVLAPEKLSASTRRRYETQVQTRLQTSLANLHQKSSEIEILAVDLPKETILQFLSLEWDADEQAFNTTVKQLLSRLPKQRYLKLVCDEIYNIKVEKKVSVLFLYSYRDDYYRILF
KIT (human), P10721 [V559D], sequence (P10721 whole entry V559D, looked up): as the sequence (P10721 whole entry D816V, looked up) above, with V559D, V816D counted along it
PIK3CA (human), P42336 [Q546K], sequence (P42336 whole entry Q546K, looked up): as the sequence (P42336 whole entry I800L, looked up) above, with Q546K, L800I counted along it
PIK3CA (human), P42336 [H1047Y], sequence (P42336 whole entry H1047Y, looked up): as the sequence (P42336 whole entry I800L, looked up) above, with L800I, H1047Y counted along it
PIK3CA (human), P42336 [C420R], sequence (P42336 whole entry C420R, looked up): as the sequence (P42336 whole entry I800L, looked up) above, with C420R, L800I counted along it
PIK3CA (human), P42336 [E545K], sequence (P42336 whole entry E545K, looked up): as the sequence (P42336 whole entry I800L, looked up) above, with E545K, L800I counted along it

CCOc1cc(N2CCC(O)CC2)ccc1Nc1ncc2c(n1)N(C)c1ccccc1C(=O)N2C
kinase still bound, per cent of control [1]: 100% | kinase still bound, per cent of control [2]: 100% | kinase still bound, per cent of control [3]: 100% | kinase still bound, per cent of control [4]: 100% | kinase still bound, per cent of control [5]: 100% | kinase still bound, per cent of control [6]: 100% | kinase still bound, per cent of control [7]: 100% | kinase still bound, per cent of control [8]: 100% | kinase still bound, per cent of control [9]: 100% | kinase still bound, per cent of control [10]: 100% | kinase still bound, per cent of control [11]: 100% | kinase still bound, per cent of control [12]: 100% | kinase still bound, per cent of control [13]: 100% | kinase still bound, per cent of control [14]: 100% | kinase still bound, per cent of control [15]: 100% | kinase still bound, per cent of control [16]: 100% | kinase still bound, per cent of control [17]: 100% | kinase still bound, per cent of control [18]: 100% | kinase still bound, per cent of control [19]: 100% | kinase still bound, per cent of control [20]: 100%

Cc1cn(-c2cc(C(=O)Nc3ccc(C)c(NC(=O)c4ccno4)c3)cc(C(F)(F)F)c2)cn1
kinase still bound, per cent of control [1]: 100% | kinase still bound, per cent of control [2]: 100% | kinase still bound, per cent of control [3]: 100% | kinase still bound, per cent of control [4]: 100% | kinase still bound, per cent of control [5]: 100% | kinase still bound, per cent of control [6]: 100% | kinase still bound, per cent of control [7]: 18% | kinase still bound, per cent of control [8]: 100% | kinase still bound, per cent of control [9]: 100% | kinase still bound, per cent of control [10]: 100% | kinase still bound, per cent of control [11]: 100% | kinase still bound, per cent of control [12]: 100% | kinase still bound, per cent of control [13]: 11% | kinase still bound, per cent of control [14]: 27% | kinase still bound, per cent of control [15]: 100% | kinase still bound, per cent of control [16]: 13% | kinase still bound, per cent of control [17]: 100% | kinase still bound, per cent of control [18]: 100% | kinase still bound, per cent of control [19]: 100% | kinase still bound, per cent of control [20]: 0.15%

CCN(CCO)CCCOc1ccc2c(Nc3cc(CC(=O)Nc4cccc(F)c4)[nH]n3)ncnc2c1
kinase still bound, per cent of control [1]: 0.6% | kinase still bound, per cent of control [3]: 15% | kinase still bound, per cent of control [5]: 1% | kinase still bound, per cent of control [6]: 100% | kinase still bound, per cent of control [8]: 31% | kinase still bound, per cent of control [9]: 0% | kinase still bound, per cent of control [10]: 30% | kinase still bound, per cent of control [11]: 0.15% | kinase still bound, per cent of control [13]: 39% | kinase still bound, per cent of control [14]: 23% | kinase still bound, per cent of control [16]: 32% | kinase still bound, per cent of control [17]: 62% | kinase still bound, per cent of control [21]: 100% | kinase still bound, per cent of control [18]: 72% | kinase still bound, per cent of control [19]: 2.5% | kinase still bound, per cent of control [20]: 0%

COc1cc(N2CCN(C)CC2)ccc1Nc1ncc2c(n1)N(C)c1ccccc1C(=O)N2C
kinase still bound, per cent of control [1]: 100% | kinase still bound, per cent of control [2]: 100% | kinase still bound, per cent of control [3]: 100% | kinase still bound, per cent of control [4]: 100% | kinase still bound, per cent of control [5]: 100% | kinase still bound, per cent of control [6]: 100% | kinase still bound, per cent of control [7]: 100% | kinase still bound, per cent of control [8]: 100% | kinase still bound, per cent of control [9]: 100% | kinase still bound, per cent of control [10]: 100% | kinase still bound, per cent of control [11]: 100% | kinase still bound, per cent of control [12]: 100% | kinase still bound, per cent of control [13]: 100% | kinase still bound, per cent of control [14]: 100% | kinase still bound, per cent of control [15]: 100% | kinase still bound, per cent of control [16]: 100% | kinase still bound, per cent of control [17]: 100% | kinase still bound, per cent of control [18]: 100% | kinase still bound, per cent of control [19]: 100% | kinase still bound, per cent of control [20]: 100%
